Measurements: patent US4927831A, “Spiro-isoquinoline-pyrrolidine tetrones and analogs thereof useful as aldose reductase inhibitors” (American Home Products, priority 1989, dated 1990)
Read-outs that look alike come from different tables or passages of the source.

Tests used:
[1] = system: dulcitol accumulation in the sciatic nerve; assay: % lowering of dulcitol accumulation in sciatic nerve (N) of galactosemic rats; assay type: in vivo, Sprague-Dawley; parameters: key: NS: statistically nonsignificant change; conditions: 4 days
Description: (§1) The aldose reductase inhibiting property of the compounds of this invention and the utilization of the compounds in preventing, diminishing and alleviating diabetic complications are demonstrable in experiments using galactosemic rats, see Dvornik et al., Science, 182, 1146 (1973). Such experiments are exemplified hereinbelow after the listing of the following general comments pertaining to these experiments:
(§2) (a) Four or more groups of six male rats, 50-70 g, Sprague-Dawley strain, were used. The first group, the control group, was fed a mixture of laboratory chow (rodent Laboratory Chow, Purina) and glucose at 20% (w/w %) concentration. An untreated galactosemic group was fed a similar diet in which galactose was substituted for glucose. The third group was fed a diet prepared by mixing a given amount of the test compound with the galactose containing diet. The concentration of galactose in the diet of the treated groups was the same as that for the untreated galactosemic group.
(§3) (b) After four days, the animals were killed by euthanization. Both the lens and sciatic nerve were removed, weighed and stored frozen for polyol determination.
(§4) (c) The polyol determination was performed by a modification of the procedure of M. Kraml and L. Cosyns, Clin. Biochem., 2,373 (1969). Only two minor reagent changes were made: (a) The rinsing mixture was an aqueous 5% (w/v) trichloroacetic acid solution and (b) the stock solution was prepared by dissolving 25 mg of dulcitol in 100 ml of an aqueous trichloroacetic acid solution. [N.B.: For each experiment the average value found in the tissue from rats fed the glucose diet was subtracted from the individual values found in the corresponding tissue in galactose-fed rats to obtain the amount of polyol accumulated.] The aldose reductase inhibiting effects of the compounds of formula (I) were also tested by employing an in vitro testing procedure similar to that described by S. Hayman and J.H. Kinoshita, J. Biol. Chem., 240,877 (1965). In the present case the procedure of Hayman and Kinoshita was modified in that the final chromatography step was omitted in the preparation of the enzyme from bovine lens.
(§5) The figures under L and N represent the percentage decrease of dulcitol accumulation in the tissues of the lens and sciatic nerve, respectively, for treated rats as compared to untreated rats.

[2] = system: dulcitol accumulation in the lens; assay: % lowering of dulcitol accumulation in lens (L) of galactosemic rats; assay type: in vivo, Sprague-Dawley; parameters: key: NS: statistically nonsignificant change; conditions: 4 days
Description: as §1, §2, §3, §4, §5

aldose reductase = molecular target: T1, aldose reductase (Bos taurus, UniProt P16116); assay: in vitro aldose reductase inhibition (modified Hayman and Kinoshita; enzyme from bovine lens); assay type: biochemical; conditions: read-out: % Inhibition IN VITRO
T1 construct: preparation of the enzyme from bovine lens; from tissue; host or cells: bovine lens
Protocol: Only two minor reagent changes were made: (a) The rinsing mixture was an aqueous 5% (w/v) trichloroacetic acid solution and (b) the stock solution was prepared by dissolving 25 mg of dulcitol in 100 ml of an aqueous trichloroacetic acid solution. [N.B.: For each experiment the average value found in the tissue from rats fed the glucose diet was subtracted from the individual values found in the corresponding tissue in galactose-fed rats to obtain the amount of polyol accumulated.] […] In the present case the procedure of Hayman and Kinoshita was modified in that the final chromatography step was omitted in the preparation of the enzyme from bovine lens. […] The figures under L and N represent the percentage decrease of dulcitol accumulation in the tissues of the lens and sciatic nerve, respectively, for treated rats as compared to untreated rats.

| SMILES | % Lowering Dulcitol Accumulation IN VIVO, N (sciatic nerve) ([1]; 1.0 mg/kg in diet) [%] | % Lowering Dulcitol Accumulation IN VIVO, L (lens) ([2]; 1.0 mg/kg in diet) | inhibition at 10 µM (aldose reductase; 10^-5 M) [%] | inhibition at 1 µM (aldose reductase; 10^-6 M) [%] | inhibition at 0.1 µM (aldose reductase; 10^-7 M) [%] | inhibition at 1 µM (aldose reductase) [%] | inhibition at 10 µM (aldose reductase) [%] | inhibition at 0.04 µM (aldose reductase; 4 × 10^-8 M) [%] | % Lowering Dulcitol Accumulation IN VIVO, N (sciatic nerve) ([1]; 0.5 mg/kg in diet) | % Lowering Dulcitol Accumulation IN VIVO, L (lens) ([2]; 0.5 mg/kg in diet) | also measured |
| --- | --- | --- | --- | --- | --- | --- | --- | --- | --- | --- | --- |
| CN1C(=O)c2ccccc2C2(CC(=O)NC2=O)C1=O (centres unmarked) [H H CH3, 2-Methylspiro[isoquinoline-4(1H),3'-pyrrolidine]-1,2',3,5'(2H)-tetrone] | 37.0 | 15.0% | 95 | 91 | 63 |  |  |  |  |  | % Lowering Dulcitol Accumulation IN VIVO, N (sciatic nerve) ([1]; 3.0 mg/kg in diet): 66.0%; % Lowering Dulcitol Accumulation IN VIVO, N (sciatic nerve) ([1]; 10.0 mg/kg in diet): 79.0%; % Lowering Dulcitol Accumulation IN VIVO, N (sciatic nerve) ([1]; 43.0 mg/kg in diet): 89.0%; % Lowering Dulcitol Accumulation IN VIVO, L (lens) ([2]; 3.0 mg/kg in diet): 43.0%; % Lowering Dulcitol Accumulation IN VIVO, L (lens) ([2]; 10.0 mg/kg in diet): 62.0%; % Lowering Dulcitol Accumulation IN VIVO, L (lens) ([2]; 43.0 mg/kg in diet): 86.0%; inhibition at 0.04 µM (aldose reductase): 38% |
| O=C1C[C@@]2(C(=O)N1)C(=O)N(Cc1ccc(Br)cc1F)C(=O)c1ccc(F)cc12 [(R)-(+)-[2-[(4-Bromo-2-fluorophenyl)methyl]-6-fluoro]spiro[isoquinoline-4(1H),3'-pyrrolidine]-1,2',3,5'(2H)-tetrone] |  |  |  |  |  | 95 | 99 |  |  |  | % Lowering Dulcitol Accumulation IN VIVO, N (sciatic nerve) ([1]; 0.4 mg/kg in diet): 100%; % Lowering Dulcitol Accumulation IN VIVO, N (sciatic nerve) ([1]; 0.8 mg/kg in diet): 100%; % Lowering Dulcitol Accumulation IN VIVO, L (lens) ([2]; 0.4 mg/kg in diet): 31%; % Lowering Dulcitol Accumulation IN VIVO, L (lens) ([2]; 0.8 mg/kg in diet): 26%; inhibition at 0.04 µM (aldose reductase): 93%; inhibition at 0.1 µM (aldose reductase): 93% |
| CN1C(=O)c2cc(Cl)ccc2C2(CC(=O)NC2=O)C1=O (centres unmarked) [H 7-Cl CH3, 7-Chloro-2-methylspiro[isoquinoline-4(1H)3'-pyrrolidine]-1,2',3,5'(2H)-tetrone] |  |  | 95 | 92 | 61 |  |  | 34 |  |  | % Lowering Dulcitol Accumulation IN VIVO, N (sciatic nerve) ([1]; 3.0 mg/kg in diet): 21%; % Lowering Dulcitol Accumulation IN VIVO, L (lens) ([2]; 3.0 mg/kg in diet): 14% |
| O=C1CC2(C(=O)N1)C(=O)N(Cc1ccc(Br)cc1F)C(=O)c1cccc(F)c12 (centres unmarked) [[2-[(4-Bromo-2-fluorophenyl)methyl]-5-fluoro]spiro[isoquinoline-4(1H),3'-pyrrolidine]-1,2',3,5'(2H)-tetrone] | 77.0 | 23.9% | 98 | 98 | 92 |  |  | 44 | 52.5% | 14.2% |  |
| O=C1C[C@@]2(C(=O)N1)C(=O)N(Cc1ccc(Br)cc1F)C(=O)c1ccccc12 [(R)-(+)-2-[(4-Bromo-2-fluorophenyl)methyl]spiro[isoquinoline-4(1H),3'-pyrrolidine]-1,2',3,5'(2H)-tetrone] |  |  |  |  | 91 | 93 | 96 | 87 | 83% | NS | % Lowering Dulcitol Accumulation IN VIVO, N (sciatic nerve) ([1]; 5.1 mg/kg in diet): 100%; % Lowering Dulcitol Accumulation IN VIVO, L (lens) ([2]; 5.1 mg/kg in diet): NS |
| O=C1CC2(C(=O)N1)C(=O)N(Cc1ccc(Br)cc1F)C(=O)c1cc(Cl)ccc12 (centres unmarked) [[2-[(4-Bromo-2-fluorophenyl)methyl]-7-chloro]spiro[isoquinoline-4(1H),3'-pyrrolidine]-1,2',3,5'(2H)-tetrone] |  |  |  | 92 | 42 |  | 96 | 25 |  |  | % Lowering Dulcitol Accumulation IN VIVO, N (sciatic nerve) ([1]; 0.6 mg/kg in diet): 63%; % Lowering Dulcitol Accumulation IN VIVO, L (lens) ([2]; 0.6 mg/kg in diet): NS |
| O=C1CC2(C(=O)N1)C(=O)N(Cc1ccc(Br)cc1F)C(=O)c1cc(F)ccc12 (centres unmarked) [[2-[(4-Bromo-2-fluorophenyl)methyl]-7-fluoro]spiro[isoquinoline-4(1H),3'-pyrrolidine]-1,2'3,5'(2H)-tetrone] | 50.2 | NS | 95 |  | 92 | 93 |  | 42 | NS | NS |  |
